Test results published in PMC5727842, “Antioxidant and Antidiabetic Effects of Flavonoids: A Structure-Activity Relationship Based Study” (BioMed Research International, 2017).
≈ marks a conversion by molar mass, not a printed value.

What was measured:
[1] = Rapid screening of radical scavenging activity by dot blot assay (DPPH staining); conditions: silica sheet stained with DPPH in MeOH, dilutions from 1000 μg/mL
Description: An aliquot (20 μL) of each dilution of each group was carefully loaded on a […] TLC plate and allowed to dry for 10 min. Drops of each sample were loaded in the order of decreased concentration along the 16 columns. The staining of the silica plate was based on the procedure of Soler-Rivas et al.. […] The intensity of the yellow color depends upon the amount and nature of radical scavenger present in the flavonoids.

[2] = ABTS+ radical scavenging assay; conditions: 734 nm, mean ± SEM (n = 3)
Description: An improved ABTS^+ radical decolorization assay was carried out involving direct production of the blue/green ABTS^+ chromophore through the reaction between ABTS and potassium persulfate. Addition of antioxidant to the preformed radical cation reduces it to ABTS to an extent on a time scale depending on the antioxidant activity, the concentration of the antioxidant, and the duration of the reaction. 1 ml ABTS was dissolved in water to make 7 mM concentration of the resultant solution. […] The resultant reaction mixture was allowed to stand in the dark at room temperature for 12–16 h before being used. The ABTS^+ radical solution was diluted with MeOH to an absorbance of 0.7 (±0.02) at 734 nm. Then, 100 μl of sample at various concentrations (1000–0.4889 μg/mL) was mixed with 100 μL of diluted ABTS^+ radical. Each concentration was analyzed in triplicate and the percentage decrease of absorbance at 734 nm with a microplate reader (Tecan NanoQuant Infinite M200, Switzerland) was calculated for each point and the antioxidant capacity of the tested compounds was expressed as percent inhibition (%). The radical scavenging activity of the compounds was measured according to the following equation [29]:(2) % inhibition=Acontrol−Asample/Acontrol×100. IC50 values were calculated by linear regression of plots, and the average percent of scavenging capacity was taken from three replicates. Trolox was used as a standard in comparison for the determination of the antioxidant activity of the flavonoids.

DPP-4 = target: T1, DPP-4 (Homo sapiens, UniProt P27487); assay: Dipeptidyl peptidase IV (DPP-4) inhibitory assay; assay type: biochemical; conditions: Table 3; mean ± SEM (n = 3); NA: not active
T1 construct: purchased Cayman (Michigan, USA)
Description: Dipeptidyl peptidase (IV) inhibitors work by inhibiting the action of this enzyme, thereby prolonging the activity of incretins that play an important role in insulin secretion and blood glucose control regulation. DPP-4 inhibitory assay was performed as per the standard method (Cayman, USA). Firstly, 1 mg of sample was dissolved in 10% of DMSO and MeOH as the stock solution. For initial activity (100%), 10 μL of MeOH, 30 μL of diluted assay buffer, and 10 μL of diluted DPP-4 (Cayman, USA) were added to 96-well microplate. […] For background well, 10 μL of MeOH and 40 μL of diluted assay buffer were added. Then, 10 μL of prepared sample and 30 μL of diluted assay buffer were added with 10 μL of diluted DPP-4. After that, 50 μL of substrate solution was added to all wells to initiate the reaction and further incubated in the dark at 37°C for 30 min. Finally, plate was read at 360 nm of excitation wavelength and 465 nm of emission wavelength using fluorescence microplate reader (Perkin Elmer, Germany). All determinations were done in triplicate and half maximal concentration (IC50) values were calculated from the percentage of inhibition based on the linear regression analysis. The equation given below was applied to calculate the inhibitory activity (%):(5) Inhibitory activity%=Initial Activity−Sample/Initial Activity×100%.
For DPP-4 inhibitory assay, the reaction is based on the cleavage of the peptide bond by DPP releasing the free Gly-Pro-aminomethylcoumarin group, a fluorogenic substrate resulting in fluorescence excitation and emission.

[3] = Ferric reducing antioxidant power (FRAP); conditions: for FRAP (AAE μg): ascorbic acid equivalent, mean ± SEM (n = 3), Table 2
Description: This assay was based on the reduction of the ferric tripyridyltriazine (Fe III-TPTZ) complex to the ferrous ion (Fe II) at a low pH forming an intense blue color. In the FRAP assay, compounds that are rich in antioxidant effect exert their action by breaking the free radical chain by donating a hydrogen atom. Briefly, ferric reducing antioxidant power (FRAP) reagent (2.5 mL of a 10 mM TPTZ solution in 40 mM HCl, 2.5 mL of 20 mM FeCl3, and 25 mL of 0.1 M acetate buffer pH 3.6) was prepared and incubated for 10 min at 37°C. Then 20 μL of each compound and ascorbic acid (standard) and 40 μL of FRAP reagent were added to 140 μL of distilled water in a 96-well plate producing a blue-colored solution. The solutions were kept at room temperature for 20 min in the dark and then measured at 593 nm with a microplate reader (Tecan, Switzerland) using a reagent blank composed of 40 μL of FRAP reagents in 200 μL of distilled water. A calibration curve was prepared with a serial dilution of ascorbic acid (standard). The total antioxidant capacity was calculated by interpolating the measured absorbance of the calibration curve and expressed as ascorbic acid equivalents. The results were corrected for dilution and expressed as AAE μg of ascorbic acid/g.

[4] = target: α-glucosidase from Saccharomyces cerevisiae; assay: α-Glucosidase inhibitory assay; assay type: biochemical; conditions: Table 3; mean ± SEM (n = 3); NA: not active
Description: α-Glucosidase inhibitory activity of the flavonoids was carried out according to the standard method with minor modification. […] A solution of 30 mM phosphate buffer (pH 6.5) was used to prepare stock solution of the sample to form a final concentration of 160 μg/mL. Then, 10 μL/well of sample was mixed with 15 μL/well of α-glucosidase from Saccharomyces cerevisiae (Megazyme, Ireland). 50 mM buffer (pH 6.5) was used to prepare the enzyme solution. Then, 115 μL/well of 30 mM buffer (pH 6.5) was added and incubated for 5 min at room temperature. Then, 75 μL/well of PNP-glucoside was added to initiate reaction and incubated at room temperature for 15 min. Finally, about 50 μL glycine at pH 10 was added to stop the reaction. The final volume of 250 μL of compound, positive control, enzyme, 30 mM buffer, and substrate was located in 96-well microplate. The absorbance (Abs) was measured using microplate reader (Tecan NanoQuant Infinite M200, Switzerland) at 405 nm to represent the amount of p-nitrophenol released from PNP-glucoside. […] The equation given below was used to calculate the inhibitory activity (%):(4) Inhibitory activity%=Abs control−Abs sample/Abs control×100%.
Tested on yeast α-glycosidase, the reaction is initiated by reacting the inhibitor (sample) with the α-glycosidase enzyme that competes with […] for the binding site, thus releasing ρ-nitrophenol which was measured in the assay.

[5] = DPPH radical scavenging assay; conditions: 30 min, 517 nm, mean ± SEM (n = 3)
Description: Each sample's stock solution was diluted to final concentrations of 1000–0.4889 μg/mL in MeOH. A total of 1 mL of a 0.3 mM DPPH methanolic solution was added to 2.5 mL of sample solution of different concentrations and allowed to react at room temperature. After 30 min, the absorbance (Abs) values were measured at 517 nm with a microplate reader (Tecan NanoQuant Infinite M200, Switzerland) and converted into the percentage antioxidant activity using the following equation described previously: (1) % antioxidant activity=100−Abssample−Abssample blank/Abscontrol−Abscontrol blank×100. MeOH + compound solution was used as a blank, while DPPH solution plus MeOH was used as a negative control. The positive controls were DPPH solution plus 1 mM ascorbic acid. The IC50 values were calculated by linear regression of plots. The average percent of scavenging capacity was taken from three replicates.

[6] = target: T2, xanthine oxidase from buttermilk (Bos taurus, UniProt P80457); assay: Xanthine oxidase inhibitory assay (XOI); assay type: biochemical
T2 construct: 0.3 U/mL enzymes (xanthine oxidase from buttermilk); purchased Sigma-Aldrich (Singapore); host or cells: buttermilk (natural source)
Description: XO catalyzes the oxidation of hypoxanthine to xanthine and subsequently to uric acid. The inhibition of XO reduces both vascular oxidative stress and circulating levels of uric acid. This assay is based on the fact that the superoxide anions are generated by the xanthine. The xanthine oxidase inhibitory activity was measured spectrophotometrically (Tecan NanoQuant Infinite M200, Switzerland) at 295 nm under aerobic condition with slight modification. The reaction mixture contained 50 mM phosphate buffer (pH 7.5), 0.15 mM xanthine (substrate), and 0.3 U/mL enzymes (xanthine oxidase from buttermilk). Samples were prepared by dissolving 1 mg in 5% DMSO in MeOH which gives sample concentration of 144.0 μg/mL in assay. […] The absorption increment at 295 nm indicates the formation of […] of uric acid/min at 25°C. […] All determination was done in triplicate and half maximal concentration (IC50) values were calculated from the percentage of inhibition. XO inhibition activity was expressed as the percentage inhibition of XO as follows:(3) % of inhibition=AbsA−B−C−D/AbsA−B×100, where A is the negative control with B as the blank of A which is without the enzyme and the sample while C is the activity of the sample with enzyme with D as the blank of the sample without enzyme.

T1 sequence (P27487 whole entry): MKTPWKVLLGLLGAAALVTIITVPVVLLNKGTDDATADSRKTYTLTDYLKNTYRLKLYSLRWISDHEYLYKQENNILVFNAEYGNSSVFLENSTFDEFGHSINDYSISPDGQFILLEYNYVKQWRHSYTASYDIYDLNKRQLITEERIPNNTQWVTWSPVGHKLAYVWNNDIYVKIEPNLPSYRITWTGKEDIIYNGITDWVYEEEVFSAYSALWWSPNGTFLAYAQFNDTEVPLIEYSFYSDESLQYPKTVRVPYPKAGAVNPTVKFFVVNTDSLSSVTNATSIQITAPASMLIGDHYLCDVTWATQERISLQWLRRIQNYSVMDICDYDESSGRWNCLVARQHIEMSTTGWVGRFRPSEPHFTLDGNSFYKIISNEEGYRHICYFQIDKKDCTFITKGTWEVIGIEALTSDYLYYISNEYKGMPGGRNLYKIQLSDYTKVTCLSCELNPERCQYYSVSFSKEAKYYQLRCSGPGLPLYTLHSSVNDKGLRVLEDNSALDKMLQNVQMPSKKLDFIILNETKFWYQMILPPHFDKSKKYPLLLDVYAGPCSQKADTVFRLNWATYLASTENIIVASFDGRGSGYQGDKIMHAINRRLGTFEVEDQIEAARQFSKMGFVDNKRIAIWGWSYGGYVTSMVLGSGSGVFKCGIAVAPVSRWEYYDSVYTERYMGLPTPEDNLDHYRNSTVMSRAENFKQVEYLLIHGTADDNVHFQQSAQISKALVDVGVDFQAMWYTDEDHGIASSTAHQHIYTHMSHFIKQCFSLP
T2 sequence (P80457 whole entry): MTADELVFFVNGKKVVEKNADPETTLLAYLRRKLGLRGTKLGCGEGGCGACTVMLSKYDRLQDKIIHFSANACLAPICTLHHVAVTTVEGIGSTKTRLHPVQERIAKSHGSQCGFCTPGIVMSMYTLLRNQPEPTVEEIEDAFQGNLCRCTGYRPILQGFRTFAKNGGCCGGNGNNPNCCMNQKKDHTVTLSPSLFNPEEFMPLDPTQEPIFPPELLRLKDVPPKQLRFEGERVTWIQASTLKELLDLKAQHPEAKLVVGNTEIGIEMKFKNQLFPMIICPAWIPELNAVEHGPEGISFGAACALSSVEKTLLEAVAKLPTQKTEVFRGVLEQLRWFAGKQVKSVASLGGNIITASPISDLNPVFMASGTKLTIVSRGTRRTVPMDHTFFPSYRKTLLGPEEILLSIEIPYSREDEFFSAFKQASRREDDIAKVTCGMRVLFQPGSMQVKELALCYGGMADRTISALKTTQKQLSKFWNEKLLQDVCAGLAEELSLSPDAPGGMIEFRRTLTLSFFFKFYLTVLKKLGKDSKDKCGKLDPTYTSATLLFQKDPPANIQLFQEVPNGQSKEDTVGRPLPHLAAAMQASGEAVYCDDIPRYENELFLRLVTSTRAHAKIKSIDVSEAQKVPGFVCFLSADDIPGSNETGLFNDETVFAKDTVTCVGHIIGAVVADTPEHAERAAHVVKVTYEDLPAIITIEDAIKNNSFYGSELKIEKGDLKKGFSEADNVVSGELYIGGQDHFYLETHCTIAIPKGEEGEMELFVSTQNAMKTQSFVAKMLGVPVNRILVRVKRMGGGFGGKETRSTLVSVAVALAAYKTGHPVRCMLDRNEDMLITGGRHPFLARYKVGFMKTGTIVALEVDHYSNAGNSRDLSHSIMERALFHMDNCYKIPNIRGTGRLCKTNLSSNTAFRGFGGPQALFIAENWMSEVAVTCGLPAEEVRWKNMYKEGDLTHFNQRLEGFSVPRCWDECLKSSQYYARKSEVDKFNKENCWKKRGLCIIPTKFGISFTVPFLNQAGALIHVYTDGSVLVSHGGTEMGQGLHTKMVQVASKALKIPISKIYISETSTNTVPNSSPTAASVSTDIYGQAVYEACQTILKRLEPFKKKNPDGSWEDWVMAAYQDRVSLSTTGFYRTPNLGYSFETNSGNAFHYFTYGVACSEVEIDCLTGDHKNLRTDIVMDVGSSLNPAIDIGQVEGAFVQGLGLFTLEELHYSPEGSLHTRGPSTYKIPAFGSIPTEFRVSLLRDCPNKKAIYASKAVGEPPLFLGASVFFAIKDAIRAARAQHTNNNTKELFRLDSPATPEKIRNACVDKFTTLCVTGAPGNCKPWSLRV

SMILES | radical scavenging activity by dot blot (intensity of yellow spots) [1] | IC50 ABTS+ [2] | IC50 ABTS+ ([2]; listed as wogonin) [µg/mL] | IC50 (DPP-4) [µM] | FRAP antioxidant capacity [3] | FRAP (AAE μg) [3] | IC50 α-Glucosidase [4] | IC50 DPPH [5] | xanthine oxidase inhibitory effect (in words) ([6]; discussion) | IC50 ([6]; xanthine oxidase inhibition, 295 nm, mean ± SEM (n = 3), NA: not active) [µM]
COc1c(O)cc(O)c2c(=O)cc(-c3ccccc3)oc12 [Wogonin, 5,7-Dihydroxy-8-methoxyflavone] | intermediate radical scavenging activity | 52.63 ± 2.99^D µg/ml | 52.65 ± 2.99 (≈ 185 µM) | > 352 | 39.15 ± 1.68 AAE μg of ascorbic acid/g | 39.15 ± 1.68^E AAE μg | >100^A µg/mg | >100^B µg/ml |  | 
O=c1cc(-c2ccccc2)oc2cc(O)cc(O)c12 [Chrysin, 5,7-Dihydroxyflavone] | intermediate radical scavenging activity | >100^B µg/ml |  |  | 21.38 ± 1.86 AAE μg of ascorbic acid/g | 21.38 ± 1.86^F AAE μg | >100^A µg/mg | >100^B µg/ml | low xanthine oxidase inhibitory activity | > 393
COc1ccc2c(=O)cc(-c3ccccc3)oc2c1O [8-Hydroxy-7-methoxyflavone] | intermediate radical scavenging activity | 3.19 ± 0.15^F µg/ml |  | > 373 | 104.92 ± 8.29 AAE μg of ascorbic acid/g | 104.92 ± 8.29^D AAE μg | >100^A µg/mg | 68.24 ± 3.70^C µg/ml |  | 
O=c1cc(-c2ccccc2)oc2c(O)c(O)cc(O)c12 [Norwogonin, 5,7,8-Trihydroxyflavone] | intermediate radical scavenging activity | 1.24 ± 0.19^FG µg/ml |  | > 370 | 177.37 ± 1.82 AAE μg of ascorbic acid/g | 152.14 ± 7.30^C AAE μg | >100^A µg/mg | 35.61 ± 1.68^D µg/ml |  | 
